Test results as given in ChEMBL document CHEMBL1201861, “Genomics of Drug Sensitity in Cancer screening data, Wellcome Trust Sanger Institute”.

Legend:
RVH-421 = experiment: cells; type: functional, cell-based; conditions: Homo sapiens
Description: SANGER: Inhibition of human RVH-421 cell growth in a cell viability assay.

SNU-387 = experiment: cells; type: functional, cell-based; conditions: Homo sapiens
Description: SANGER: Inhibition of human SNU-387 cell growth in a cell viability assay.

SiHa = experiment: cells; type: functional, cell-based; conditions: Homo sapiens;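 also: Viability-based readout of growth inhibition in SiHa cells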
Description: SANGER: Inhibition of human SiHa cell growth in a cell viability assay.

BXPC-3 = experiment: cells; type: functional, cell-based; conditions: Homo sapiens;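 also: growth inhibition of human BxPC-3 cells, read out by a cell viability assay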
Description: SANGER: Inhibition of human BxPC-3 cell growth in a cell viability assay.

MeWo = experiment: cells; type: functional, cell-based; conditions: Homo sapiens;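 also: growth inhibition of MeWo cells, determined by a cell viability readout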
Description: SANGER: Inhibition of human Mewo cell growth in a cell viability assay.

NCI-H2052 = experiment: cells; type: functional, cell-based; conditions: Homo sapiens;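 also: growth inhibition of NCI-H2052 cells, read out with a cell viability assay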
Description: SANGER: Inhibition of human NCI-H2052 cell growth in a cell viability assay.

NCI-H1693 = experiment: cells; type: functional, cell-based; conditions: Homo sapiens;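 also: growth inhibition of the human cell line, read out with a cell viability assay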
Description: SANGER: Inhibition of human NCI-H1693 cell growth in a cell viability assay.

PANC-08-13 = experiment: cells; type: functional, cell-based; conditions: Homo sapiens
Description: SANGER: Inhibition of human PANC-08-13 cell growth in a cell viability assay.

HT-1080 = experiment: cells; type: functional, cell-based; conditions: Homo sapiens
Description: SANGER: Inhibition of human HT-1080 cell growth in a cell viability assay.

MEL-JUSO = experiment: cells; type: functional, cell-based; conditions: Homo sapiens;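 also: growth inhibition of human MEL-JUSO cells, read out with a cell viability assay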
Description: SANGER: Inhibition of human MEL-JUSO cell growth in a cell viability assay.

A2780 = experiment: cells; type: functional, cell-based; conditions: Homo sapiens;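 also: growth inhibition of A2780 cells, read out with a cell viability assay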
Description: SANGER: Inhibition of human A2780 cell growth in a cell viability assay.

A-431 = experiment: cells; type: functional, cell-based; conditions: Homo sapiens;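 also: growth inhibition of A-431 cells, determined with a cell viability read-out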
Description: SANGER: Inhibition of human A431 cell growth in a cell viability assay.

J82 = experiment: cells; type: functional, cell-based; conditions: Homo sapiens;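 also: growth inhibition of J82 cells, read out with a cell viability assay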
Description: SANGER: Inhibition of human J82 cell growth in a cell viability assay.

KYSE-510 = experiment: cells; type: functional, cell-based; conditions: Homo sapiens;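 also: cell viability readout used to measure how strongly growth of the cell line is suppressed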
Description: SANGER: Inhibition of human KYSE-510 cell growth in a cell viability assay.

CAL-72 = experiment: cells; type: functional, cell-based; conditions: Homo sapiens;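 also: cell viability assay measuring inhibition of proliferation in the CAL-72 cell line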
Description: SANGER: Inhibition of human CAL-72 cell growth in a cell viability assay.

EW-22 = experiment: cells; type: functional, cell-based; conditions: Homo sapiens;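 also: growth inhibition of the EW-22 cell line, measured with a cell viability readout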
Description: SANGER: Inhibition of human EW-22 cell growth in a cell viability assay.

NCI-H1651 = experiment: cells; type: functional, cell-based; conditions: Homo sapiens;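 also: Read-out is a cell viability assay, with IC50 expressing inhibition of NCI-H1651 cell growth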
Description: SANGER: Inhibition of human NCI-H1651 cell growth in a cell viability assay.

T98G = experiment: cells; type: functional, cell-based; conditions: Homo sapiens;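 also: growth inhibition of T98G cells, read out by a cell viability assay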
Description: SANGER: Inhibition of human T98G cell growth in a cell viability assay.

NCI-H661 = experiment: cells; type: functional, cell-based; conditions: Homo sapiens;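 also: cell viability assay read-out, IC50 being the concentration that inhibits growth of the cells by half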
Description: SANGER: Inhibition of human NCI-H661 cell growth in a cell viability assay.

OVCAR-3 = experiment: cells; type: functional, cell-based; conditions: Homo sapiens;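 also: growth inhibition of human OVCAR-3 cells, determined by a cell viability assay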
Description: SANGER: Inhibition of human OVCAR-3 cell growth in a cell viability assay.

M059J = experiment: cells; type: functional, cell-based; conditions: Homo sapiens;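 also: growth inhibition of M059J cells, read out with a cell viability assay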
Description: SANGER: Inhibition of human M059J cell growth in a cell viability assay.

SK-OV-3 = experiment: cells; type: functional, cell-based; conditions: Homo sapiens;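 also: growth inhibition of SK-OV-3 human cells, read out with a cell viability assay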
Description: SANGER: Inhibition of human SK-OV-3 cell growth in a cell viability assay.

GP5d = experiment: cells; type: functional, cell-based; conditions: Homo sapiens;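 also: growth inhibition of human GP5d cells, read out with a cell viability assay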
Description: SANGER: Inhibition of human GP5d cell growth in a cell viability assay.

UACC-893 = experiment: cells; type: functional, cell-based; conditions: Homo sapiens
Description: SANGER: Inhibition of human UACC-893 cell growth in a cell viability assay.

KYSE-410 = experiment: cells; type: functional, cell-based; conditions: Homo sapiens;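 also: growth inhibition of KYSE-410 cells, measured through a cell viability readout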
Description: SANGER: Inhibition of human KYSE-410 cell growth in a cell viability assay.

HT1197 = experiment: cells; type: functional, cell-based, HT-1197; conditions: Homo sapiens
Description: SANGER: Inhibition of human HT-1197 cell growth in a cell viability assay.

JEG-3 = experiment: cells; type: functional, cell-based; conditions: Homo sapiens;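 also: growth inhibition of human JEG-3 cells, read out with a cell viability assay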
Description: SANGER: Inhibition of human JEG-3 cell growth in a cell viability assay.

GAMG = experiment: cells; type: functional, cell-based; conditions: Homo sapiens;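 also: cell growth inhibition measured by a viability assay in the GAMG human cell line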
Description: SANGER: Inhibition of human GAMG cell growth in a cell viability assay.

BFTC-905 = experiment: cells; type: functional, cell-based; conditions: Homo sapiens
Description: SANGER: Inhibition of human BFTC-905 cell growth in a cell viability assay.

Capan-2 = experiment: cells; type: functional, cell-based; conditions: Homo sapiens;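 also: Capan-2 cell growth inhibition, read out with a viability assay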
Description: SANGER: Inhibition of human Capan-2 cell growth in a cell viability assay.

COLO-680N = experiment: cells; type: functional, cell-based; conditions: Homo sapiens;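 also: cell viability assay used to measure inhibition of COLO-680N cell growth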
Description: SANGER: Inhibition of human COLO-680N cell growth in a cell viability assay.

COLO-678 = experiment: cells; type: functional, cell-based; conditions: Homo sapiens
Description: SANGER: Inhibition of human COLO-678 cell growth in a cell viability assay.

NCI-H1993 = experiment: cells; type: functional, cell-based; conditions: Homo sapiens;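 also: growth inhibition of the cancer cell line, assessed with a cell viability assay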
Description: SANGER: Inhibition of human NCI-H1993 cell growth in a cell viability assay.

MDA-MB-231 = experiment: cells; type: functional, cell-based; conditions: Homo sapiens
Description: SANGER: Inhibition of human MDA-MB-231 cell growth in a cell viability assay.

DoTc2-4510 = experiment: cells; type: functional, cell-based; conditions: Homo sapiens
OAW-28 = experiment: cells; type: functional, cell-based; conditions: Homo sapiens;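 also: growth inhibition of OAW-28 cells, read out with a cell viability assay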
Description: SANGER: Inhibition of human OAW-28 cell growth in a cell viability assay.

DOK = experiment: cells; type: functional, cell-based; conditions: Homo sapiens;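 also: cell viability assay read-out, values reflect inhibition of cell growth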
Description: SANGER: Inhibition of human DOK cell growth in a cell viability assay.

SK-MES-1 = experiment: cells; type: functional, cell-based; conditions: Homo sapiens;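 also: growth inhibition of human SK-MES-1 cells, read out with a cell viability assay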
Description: SANGER: Inhibition of human SK-MES-1 cell growth in a cell viability assay.

EGI-1 = experiment: cells; type: functional, cell-based; conditions: Homo sapiens;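 also: cell viability readout used to gauge growth inhibition of EGI-1 cells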
Description: SANGER: Inhibition of human EGI-1 cell growth in a cell viability assay.

NCI-H2405 = experiment: cells; type: functional, cell-based; conditions: Homo sapiens;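 also: growth inhibition of the human cell line, read out with a cell viability assay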
Description: SANGER: Inhibition of human NCI-H2405 cell growth in a cell viability assay.

LB996-RCC = experiment: cells; type: functional, cell-based; conditions: Homo sapiens
Description: SANGER: Inhibition of human LB996-RCC cell growth in a cell viability assay.

SAS = experiment: cells; type: functional, cell-based; conditions: Homo sapiens;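 also: growth inhibition of SAS cells, read out with a cell viability assay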
Description: SANGER: Inhibition of human SAS cell growth in a cell viability assay.

MKN-1 = experiment: cells; type: functional, cell-based; conditions: Homo sapiens;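 also: growth inhibition of human MKN1 cells, read out by a cell viability measurement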
Description: SANGER: Inhibition of human MKN1 cell growth in a cell viability assay.

G-402 = experiment: cells; type: functional, cell-based; conditions: Homo sapiens
Description: SANGER: Inhibition of human G-402 cell growth in a cell viability assay.

NCI-N87 = experiment: cells; type: functional, cell-based; conditions: Homo sapiens;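 also: growth inhibition of human NCI-N87 cells, read out with a cell viability assay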
Description: SANGER: Inhibition of human NCI-N87 cell growth in a cell viability assay.

MHH-ES-1 = experiment: cells; type: functional, cell-based; conditions: Homo sapiens
Description: SANGER: Inhibition of human MHH-ES-1 cell growth in a cell viability assay.

MKN-45 = experiment: cells; type: functional, cell-based; conditions: Homo sapiens;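 also: growth inhibition of human MKN-45 cells, measured with a cell viability assay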
Description: SANGER: Inhibition of human MKN45 cell growth in a cell viability assay.

SW1573 = experiment: cells; type: functional, cell-based; conditions: Homo sapiens;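 also: growth inhibition of SW1573 cells, read out with a cell viability assay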
Description: SANGER: Inhibition of human SW1573 cell growth in a cell viability assay.

BC1 cell line = experiment: SANGER: Inhibition of human BC-1 cell growth in a cell viability assay.; type: functional, cell-based
BL-41 = experiment: cells; type: functional, cell-based; conditions: Homo sapiens;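 also: growth inhibition of human BL-41 cells, read out with a cell viability assay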
Description: SANGER: Inhibition of human BL-41 cell growth in a cell viability assay.

LC-1F = experiment: cells; type: functional, cell-based; conditions: Homo sapiens;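 also: growth inhibition of human LC-1F cells, read out with a cell viability assay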
Description: SANGER: Inhibition of human LC-1F cell growth in a cell viability assay.

P31-FUJ = experiment: cells; type: functional, cell-based; conditions: Homo sapiens;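 also: growth inhibition of P31-FUJ cells, read out with a viability assay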
Description: SANGER: Inhibition of human P31-FUJ cell growth in a cell viability assay.

NCI-H889 = experiment: cells; type: functional, cell-based; conditions: Homo sapiens;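 also: cell growth inhibition of the cell line, read out with a viability assay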
Description: SANGER: Inhibition of human NCI-H889 cell growth in a cell viability assay.

SIG-M5 = experiment: cells; type: functional, cell-based; conditions: Homo sapiens;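 also: cell viability assay read-out, measuring how strongly growth of cultured human SIG-M5 cells is inhibited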
Description: SANGER: Inhibition of human SIG-M5 cell growth in a cell viability assay.

SNU-C1 = experiment: cells; type: functional, cell-based; conditions: Homo sapiens;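 also: growth inhibition of SNU-C1 human cells, read out by a cell viability assay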
Description: SANGER: Inhibition of human SNU-C1 cell growth in a cell viability assay.

NCI-H1436 = experiment: cells; type: functional, cell-based; conditions: Homo sapiens;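 also: growth suppression of human NCI-H1436 cells, determined with a cell viability readout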
Description: SANGER: Inhibition of human NCI-H1436 cell growth in a cell viability assay.

NCI-H2141 = experiment: cells; type: functional, cell-based; conditions: Homo sapiens;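 also: growth inhibition of human NCI-H2141 cells, read out with a cell viability assay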
Description: SANGER: Inhibition of human NCI-H2141 cell growth in a cell viability assay.

COR-L279 = experiment: SANGER: Inhibition of human COR-L279 cell growth in a cell viability assay.; type: functional, cell-based
GDM-1 = experiment: cells; type: functional, cell-based; conditions: Homo sapiens;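 also: cell viability readout used to measure growth inhibition of human GDM-1 cells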
Description: SANGER: Inhibition of human GDM-1 cell growth in a cell viability assay.

BC-3 = experiment: cells; type: functional, cell-based; conditions: Homo sapiens;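 also: cell viability assay measuring growth inhibition of human BC-3 cells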
Description: SANGER: Inhibition of human BC-3 cell growth in a cell viability assay.

SK-MM-2 = experiment: cells; type: functional, cell-based; conditions: Homo sapiens;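 also: growth inhibition of human SK-MM-2 cells, read out with a cell viability assay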
Description: SANGER: Inhibition of human SK-MM-2 cell growth in a cell viability assay.

TE-15 = experiment: cells; type: functional, cell-based; conditions: Homo sapiens;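 also: cell viability readout of growth inhibition in TE-15 cells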
Description: SANGER: Inhibition of human TE-15 cell growth in a cell viability assay.

LB647-SCLC = experiment: cells; type: functional, cell-based; conditions: Homo sapiens;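 also: cell growth inhibition, read out by a viability assay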
Description: SANGER: Inhibition of human LB647-SCLC cell growth in a cell viability assay.

RPMI 8402 = experiment: SANGER: Inhibition of human RPMI-8402 cell growth in a cell viability assay.; type: functional, cell-based
Daudi = experiment: cells; type: functional, cell-based; conditions: Homo sapiens
Description: SANGER: Inhibition of human Daudi cell growth in a cell viability assay.

For `O=c1cc(N2CCOCC2)oc2c(-c3cccc4c3sc3ccccc34)cccc12`, the IC50 (RVH-421) was > 2000 nM, the IC50 (SNU-387) was > 2000 nM and the IC50 (SiHa) was > 2000 nM. The IC50 (BXPC-3) was > 2000 nM, the IC50 (MeWo) was > 2000 nM and the IC50 (NCI-H2052) was > 2000 nM. For the same molecule, the IC50 (NCI-H1693) was > 2000 nM, the IC50 (PANC-08-13) was > 2000 nM and the IC50 (HT-1080) was > 2000 nM. For the same molecule, the IC50 (MEL-JUSO) was > 2000 nM, the IC50 (A2780) was > 2000 nM and the IC50 (A-431) was > 2000 nM. For the same molecule, the IC50 (J82) was > 2000 nM, the IC50 (KYSE-510) was > 2000 nM and the IC50 (CAL-72) was > 2000 nM. For the same molecule, the IC50 (EW-22) was > 2000 nM, the IC50 (NCI-H1651) was > 2000 nM and the IC50 (T98G) was > 2000 nM. For the same molecule, the IC50 (NCI-H661) was > 2000 nM, the IC50 (OVCAR-3) was > 2000 nM and the IC50 (M059J) was > 2000 nM. For the same molecule, the IC50 (SK-OV-3) was > 2000 nM, the IC50 (GP5d) was > 2000 nM and the IC50 (UACC-893) was > 2000 nM. The IC50 (KYSE-410) was > 2000 nM, the IC50 (HT1197) was > 2000 nM and the IC50 (JEG-3) was > 2000 nM. The IC50 (GAMG) was > 2000 nM, the IC50 (BFTC-905) was > 2000 nM and the IC50 (Capan-2) was > 2000 nM. For the same molecule, the IC50 (COLO-680N) was > 2000 nM, the IC50 (COLO-678) was > 2000 nM and the IC50 (NCI-H1993) was > 2000 nM. The IC50 (MDA-MB-231) was > 2000 nM, the IC50 (DoTc2-4510) was > 2000 nM and the IC50 (OAW-28) was > 2000 nM. The IC50 (DOK) was > 2000 nM, the IC50 (SK-MES-1) was > 2000 nM and the IC50 (EGI-1) was > 2000 nM. The IC50 (NCI-H2405) was > 2000 nM, the IC50 (LB996-RCC) was > 2000 nM and the IC50 (SAS) was > 2000 nM. For the same molecule, the IC50 (MKN-1) was > 2000 nM, the IC50 (G-402) was > 2000 nM and the IC50 (NCI-N87) was > 2000 nM. The IC50 (MHH-ES-1) was > 2000 nM, the IC50 (MKN-45) was > 2000 nM and the IC50 (SW1573) was > 2000 nM.
For `Cc1ccc(NC(=O)c2cccc(C(C)(C)C#N)c2)cc1Nc1ccc2ncn(C)c(=O)c2c1`, the IC50 (BC1 cell line) was > 4000 nM, the IC50 (BL-41) was > 4000 nM and the IC50 (LC-1F) was 3300 nM. The IC50 (P31-FUJ) was > 4000 nM, the IC50 (NCI-H889) was > 4000 nM and the IC50 (EW-22) was > 4000 nM. The IC50 (SIG-M5) was 9.45 nM, the IC50 (SNU-C1) was > 4000 nM and the IC50 (NCI-H1436) was > 4000 nM. The IC50 (NCI-H2141) was > 4000 nM, the IC50 (COR-L279) was > 4000 nM and the IC50 (GDM-1) was 229 nM. The IC50 (BC-3) was > 4000 nM, the IC50 (LB996-RCC) was > 4000 nM and the IC50 (SK-MM-2) was > 4000 nM. For the same molecule, the IC50 (TE-15) was > 4000 nM, the IC50 (LB647-SCLC) was > 4000 nM and the IC50 (RPMI 8402) was > 4000 nM. For the same molecule, the IC50 (Daudi) was > 4000 nM.
For `CCn1c(-c2nonc2N)nc2cnc(Oc3cccc(NC(=O)c4ccc(OCCN5CCOCC5)cc4)c3)cc21` [GSK-269962A], the IC50 (BC1 cell line) was > 2500 nM, the IC50 (BL-41) was > 2500 nM and the IC50 (LC-1F) was > 2500 nM. For the same molecule, the IC50 (P31-FUJ) was > 2500 nM, the IC50 (NCI-H889) was > 2500 nM and the IC50 (EW-22) was > 2500 nM. For the same molecule, the IC50 (SIG-M5) was > 2500 nM, the IC50 (SNU-C1) was > 2500 nM and the IC50 (NCI-H1436) was > 2500 nM. The IC50 (NCI-H2141) was > 2500 nM, the IC50 (COR-L279) was 2070 nM and the IC50 (GDM-1) was > 2500 nM. For the same molecule, the IC50 (BC-3) was > 2500 nM, the IC50 (LB996-RCC) was > 2500 nM and the IC50 (SK-MM-2) was > 2500 nM. The IC50 (TE-15) was > 2500 nM, the IC50 (LB647-SCLC) was > 2500 nM and the IC50 (RPMI 8402) was > 2500 nM. For the same molecule, the IC50 (Daudi) was 2100 nM.
